Experimental findings from article PMC11229374, “Unlocking the potential of protein-derived peptides to target G-quadruplex DNA: from recognition to anticancer activity” (Nucleic Acids Research, 2024) are described below.

The target in assay [1] is HT2 G4. Put plainly: Microscale thermophoresis (MST) binding to HT2 G4. The arrangement: species or system human. As to conditions: 25°C, 20 nM FITC-labelled peptide, DNA serial dilution, 5 mM KH2PO4/K2HPO4 pH 7.0, 20 mM KCl, 0.1% Tween, 5% DMSO. How it is done: (§1) MST experiments were conducted using a Monolith NT.115 instrument (NanoTemper Technologies, Munich, Germany) at 25°C with medium MST power settings. […] DNA samples were also diluted using the same buffer supplemented with 0.1% Tween. During MST experiments, the concentration of the labelled peptide was kept constant at 20 nM, while a serial dilution of the investigated DNA molecules (ranging from 10 or 20 μM) was prepared and mixed with the peptide solution in a 1:1 volume ratio. All the samples, with a final concentration of 5% DMSO, were loaded into standard capillaries (NanoTemper Technologies) for MST measurements. Data analysis was carried out using the MO.Affinity Analysis (v2.3) software provided with the instrument.
A general note: Microscale thermophoresis detects binding through changes in fluorescence in a small temperature gradient.

For assay [2], the target named is VEGFR-17T G4. Put plainly: Microscale thermophoresis (MST) binding to VEGFR-17T G4. The arrangement: species or system human. Conditions: 25°C, 20 nM FITC-labelled peptide, same buffer, n.d. = not determined due to undetectable binding. As to the method:
as §1

Assay [3] has as its target c-MYC G4. Kind of assay: Microscale thermophoresis (MST) binding to c-MYC G4. The arrangement: species or system human. Conditions: 25°C, 20 nM FITC-labelled peptide, DNA serial dilution, 5 mM KH2PO4/K2HPO4 pH 7.0, 20 mM KCl, 0.1% Tween, 5% DMSO. How it is done: as §1
The test system of assay [4] is c-KIT2 G4. Kind of assay: CD melting, thermal stabilization of c-KIT2 G4. Format: binding, human. Conditions: CD melting at 264 nm, 5 mM KH2PO4/K2HPO4 pH 7.0, 20 mM KCl, average of three. The source says: The buffer baseline was subtracted from each spectrum.
Assay [5] deals with BCL-2 G4. Kind of assay: Microscale thermophoresis (MST) binding to BCL-2 G4. Further details: species or system human. Conditions: 25°C, 20 nM FITC-labelled peptide, DNA serial dilution, 5 mM KH2PO4/K2HPO4 pH 7.0, 20 mM KCl, 0.1% Tween, 5% DMSO. How it is done: as §1
Assay [6] concerns the target ds12 duplex. Kind of assay: Microscale thermophoresis (MST) binding to ds12 duplex. Conditions: 25°C, 20 nM FITC-labelled peptide, same buffer, n.d. = not determined due to undetectable binding. As to the method:
as §1

Assay [7] concerns the target HER2 G4. Kind of assay: Microscale thermophoresis (MST) binding to HER2 G4. As to conditions: 25°C, 20 nM FITC-labelled peptide, DNA serial dilution, 5 mM KH2PO4/K2HPO4 pH 7.0, 20 mM KCl, 0.1% Tween, 5% DMSO. Further details: species or system human. As to the method: as §1
Assay [8] has as its target HT1 G4. Kind of assay: Microscale thermophoresis (MST) binding to HT1 G4. The arrangement: species or system human. As to conditions: 25°C, 20 nM FITC-labelled peptide, DNA serial dilution, 5 mM KH2PO4/K2HPO4 pH 7.0, 20 mM KCl, 0.1% Tween, 5% DMSO. How it is done:
as §1

The subject of assay [9] is c-KIT2 G4. Kind of assay: Isothermal titration calorimetry (ITC) with c-KIT2 G4. Format: binding, human. As to conditions: ITC at 25°C, triplicate. As to the method:
(§2) ITC experiments were conducted at 25°C using a nano-ITC Low Volume calorimeter (TA instruments, Lindon, UT, USA). DNA and peptide solutions were prepared using the same batch of buffer (5 mM KH2PO4/K2HPO4 buffer containing 20 mM KCl, pH 7.0) to prevent differences in buffer composition and pH. Each titration consisted of 25 injections of a 2 μl peptide solution (280–400 μM) sequentially injected using a computer-controlled 50 μl syringe, into the calorimetric vessel (190 μl) containing the oligonucleotide (16–20 μM). A spacing of 300 s between each injection was applied to allow the system to reach the equilibrium. The heat generated by peptide dilution was assessed in a control experiment by injecting the peptide solution into the buffer (Supplementary Figure S30). All measurements were performed in triplicate. Subsequently, the interaction heat for each injection was calculated considering the correction for the heat of peptide dilution. The corrected heat values were plotted as a function of the molar ratio to provide binding isotherms. The isotherms were fitted with a multiple-sites binding model using the NanoAnalyze software (TA instruments) provided with the instrument. This analysis provided the equilibrium binding constant (Ka), binding enthalpy (ΔH°), and stoichiometry of interaction (n). The equilibrium dissociation constant (Kd), Gibbs free-energy change and entropy change were determined using the following relationships: Kd = 1/Ka, ΔG° = -RT ln Ka (R = 8.314 J mol^−1 K^−1, T = 298.15 K), and TΔS° = ΔH° – ΔG°.
For orientation: Isothermal titration calorimetry measures the heat released or taken up as one component is titrated into another.

Assay [10] concerns HER2 G4. Put plainly: Isothermal titration calorimetry (ITC) with HER2 G4. The format is binding, human. Conditions: ITC at 25°C, triplicate. How it is done:
as §2, with “The isotherms were fitted with a multiple-sites binding model using the NanoAnalyze software (TA instruments) provided with the instrument. This analysis provided the equilibrium binding constant (Ka), binding enthalpy (ΔH°), and stoichiometry of interaction (n).” left out

Assay [11] has as its target c-KIT2 G4. Kind of assay: Microscale thermophoresis (MST) binding to c-KIT2 G4. The arrangement: species or system human. As to conditions: 25°C, 20 nM FITC-labelled peptide, DNA serial dilution, 5 mM KH2PO4/K2HPO4 pH 7.0, 20 mM KCl, 0.1% Tween, 5% DMSO. How it is done: as §1
Assay [12] concerns the target LWDLN1 G4. Put plainly: Microscale thermophoresis (MST) binding to LWDLN1 G4. As to conditions: 25°C, 20 nM FITC-labelled peptide, same buffer, n.d. = not determined due to undetectable binding. As to the method:
as §1

For assay [13], the system named is U2OS cells. Put plainly: Viability assay (crystal violet), U2OS. Format: cell-based. Conditions: 72 h treatment, unconjugated peptides. As to the method: U2OS, HCT116 and MDA-MB-231 cells were purchased from the ATCC and grown in Dulbecco modified Eagle's medium (DMEM; EuroClone, Milan, Italy; ECM0728L) supplemented with 10% Fetal Bovine Serum (FBS, ThermoFisher Scientific/Gibco, Waltham, MA, USA; 10270-106), 2 mM L-glutamine and antibiotics in a humidified incubator at 37°C with 5% CO2 and atmospheric O2 concentration. Cell lines were authenticated and tested to be mycoplasma-free.
U2OS, HCT116, and MDA-MB-231 cells were seeded in 24-well plates at a density of 1 × 10^4, 20 × 10^3 and 12 × 10^3 for each well, respectively. After 24 h, cells were treated with the indicated peptides and incubated at 37°C for additional 72 h. Upon treatment completion, cell medium was removed, the wells were washed twice in phosphate-buffered saline (PBS) and fixed with 4% formaldehyde for 15 min at room temperature (RT). After washing, 500 μl of crystal violet staining solution (Sigma-Aldrich, St. Louis, MO, USA) was added to each well and incubated for 30 min at RT. Finally, the plates were rinsed twice with water, air-dried and cell pellets were dissolved in 400 μl of a 10% aqueous solution of acetic acid. In total, 200 μl of each sample was transferred to a 96-well plate, and the optical density was measured at 570 nm (OD570) with an ELISA reader (Thermo Scientific, Waltham, MA, USA). The average absorbance in each condition was used to calculate the viability expressed as a percentage of treated vs untreated conditions (CTR).

Assay [14] deals with HRAS1 G4. Put plainly: Microscale thermophoresis (MST) binding to HRAS1 G4. Conditions: 25°C, 20 nM FITC-labelled peptide, same buffer, n.d. = not determined due to undetectable binding. Further details: species or system human. How it is done:
as §1

Assay [15] concerns the target c-KIT1 G4. Put plainly: Microscale thermophoresis (MST) binding to c-KIT1 G4. The arrangement: species or system human. Conditions: 25°C, 20 nM FITC-labelled peptide, DNA serial dilution, 5 mM KH2PO4/K2HPO4 pH 7.0, 20 mM KCl, 0.1% Tween, 5% DMSO. As to the method:
as §1

Where “and” joins values, the source holds several entries; their conditions need not be identical. Identical values can stand only once.

The term Kd denotes the concentration at which binding is half-saturated. A lower Kd goes with a tighter complex. For “Ac-NHTGNSIRHRFRVYLSKRL-NH2 [Myb^397–415]”, the Kd was 1180 nM in assay [1]; 430 nM in [3]; 280 nM in assay [5]; 130 nM in assay [7]; 900 nM in [8]; 200 nM in [9] (c-KIT2 G4, Kd = 1/Ka). The Kd in assay [10] (HER2 G4, Kd = 1/Ka) amounted to 100 nM; in assay [11], 130 nM; in [15] it was 340 nM. Moreover, the “Kd for binding to VEGFR-17T G4” value in [2] was “negligible binding”. The “ΔT1/2 of c-KIT2 G4” value in assay [4] (2 μM DNA, 1 mol equiv peptide, 1°C/min, T1/2 DNA alone 59.5°C) is 11.2 °C and 11.2 (±0.2) °C; in assay [4] (2 mol equiv of peptide with respect to G4, 2 μM DNA, T1/2 c-KIT2 alone 59.5°C), 17.3 (±0.2) °C. For the same substance, the “Kd for binding to ds12 duplex” value in assay [6] was “negligible”. Further, the Ka is 5.0 × 10^6 M^−1 and 5.0 (±0.3) ×10^6 M^−1 in assay [9] (c-KIT2 G4 16–20 μM, peptide 280–400 μM, 5 mM KH2PO4/K2HPO4, 20 mM KCl, pH 7.0); 1.0 × 10^7 M^−1 and 1.0 (±0.1) ×10^7 M^−1 in assay [10] (HER2 G4 16–20 μM, peptide 280–400 μM, 5 mM KH2PO4/K2HPO4, 20 mM KCl, pH 7.0). In assay [12], the “Kd for binding to LWDLN1 G4” value is reported as “negligible binding”. The “Impact on cancer cell viability, peptides in native form” value in assay [13] was “unable to significantly impact cancer cells viability”. Moreover, the “Kd for binding to HRAS1 G4” value in [14] is recorded as “negligible binding”.
